According to patent US20260364184A1, “COMPOUND BASED ON OXOISOINDOLINYL-SUBSTITUTED TETRAHYDROPYRIMIDINE-DIONE AND USE THEREOF” (GLUETACS THERAPEUTICS (SHANGHAI) CO., LTD., priority 2023, published 2026):

Experiments:
WEE1 = molecular target: T1, WEE1 (Homo sapiens, UniProt P30291+Q96SW2); experiment: Western blot degradation of WEE1; type: cell-based; conditions: hPBMC Cell; 24 hours
T1 construct: expression of target proteins in cells; endogenous in cells
Protocol: (§1) Conventional Western blot assay was performed to evaluate the effects of the compounds of the present disclosure on the expression of target proteins in cells.
(§2) (1) Cell Seeding and Protein Harvesting: The selected cells were processed according to the cell seeding procedure and protein harvesting procedure in Table II-2.
(§3) (2) To the collected supernatant, 5×SDS sample loading buffer was added, followed by denaturation at 95 °C for 5 minutes. The denatured samples were then separated by SDS-PAGE electrophoresis on a polyacrylamide gel. Proteins were transferred to a nitrocellulose membrane (0.45 μm NC membrane), blocked with blocking buffer at room temperature for 1 hour, and subjected to antibody incubation and development procedures according to the antibody manufacturer's instructions (Cell Signaling Technology).
(§4) Half-Maximal Degradation Concentration value (the drug concentration required for degrading proteins by 50%, abbreviated as DC50) reads method: comparing the grayscale values of Western blot bands from drug-treated samples with those from blank DMSO-treated controls, and identifying the drug concentration range at which the grayscale value is half that of the DMSO-treated control bands.
(§5) DC50 values can be calculated using ImageJ software to measure grayscale values of Western blot bands from drug-treated samples. The concentration-response curve is fitted to estimate the drug concentration corresponding to half the grayscale value.
(§6) Target protein remaining (%) refers to the percentage of target protein remaining in cells after treatment with protein degrader compounds.
(§7) Calculation method for target protein remaining (%): Use ImageJ software to measure grayscale values of Western blot bands from drug (protein degrader)-treated samples. The grayscale value of drug-treated bands is divided by that of internal control protein bands, and the resulting quotient is normalized to obtain the relative percentage of remaining target protein after protein degrader treatment.
(§8) Target protein degradation rate (%)=1−target protein remaining (%).

IKZF1 = molecular target: T2, IKZF1 (Homo sapiens, UniProt Q13422+Q96SW2); experiment: Western blot degradation of IKZF1; type: cell-based; conditions: hPBMC Cell; 24 hours
T2 construct: expression of target proteins in cells; endogenous in cells
Protocol: as §1, §2, §3, §4, §5, §6, §7, §8

IKZF2 = molecular target: T3, IKZF2 (Homo sapiens, UniProt Q96SW2+Q9UKS7); experiment: Western blot degradation of IKZF2; type: cell-based; conditions: hPBMC Cell; 24 hours
T3 construct: expression of target proteins in cells; endogenous in cells
Protocol: as §1, §2, §3, §4, §5, §6, §7, §8

IKZF3 = molecular target: T4, IKZF3 (Homo sapiens, UniProt Q96SW2+Q9UKT9); experiment: Western blot degradation of IKZF3; type: cell-based; conditions: hPBMC Cell; 24 hours
T4 construct: expression of target proteins in cells; endogenous in cells
Protocol: as §1, §2, §3, §4, §5, §6, §7, §8

CK1α = molecular target: T5, CK1α (Homo sapiens, UniProt P48729+Q96SW2); experiment: Western blot degradation of CK1α; type: cell-based; conditions: hPBMC Cell; 24 hours
T5 construct: expression of target proteins in cells; endogenous in cells
Protocol: as §1, §2, §3, §4, §5, §6, §7, §8

GSPT1 = molecular target: T6, GSPT1 (Homo sapiens, UniProt P15170+Q96SW2); experiment: Western blot degradation of GSPT1; type: cell-based; conditions: hPBMC Cell; 24 hours
T6 construct: expression of target proteins in cells; endogenous in cells
Protocol: as §1, §2, §3, §4, §5, §6, §7, §8

[1] = molecular target: T7, human Cereblon WT GST-tagged protein (CRBN) (Homo sapiens, UniProt Q96SW2); experiment: CRBN binding by HTRF (Cereblon binding kit)
T7 construct: purchased CISBIO 64BDCRBNPEH
In short: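 GST-tagged human Cereblon WT was incubated 3 h at room temperature with compound, thalidomide-Re tracer and Eu anti-GST antibody. Final compound concentrations were 10 to 0.00064 µM (7 points) or 2 and 0.5 µM. Inhibition rate was calculated from HTRF 665/620 nm ratios versus solvent and blank controls.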

T3 sequence (Q9UKS7 whole entry): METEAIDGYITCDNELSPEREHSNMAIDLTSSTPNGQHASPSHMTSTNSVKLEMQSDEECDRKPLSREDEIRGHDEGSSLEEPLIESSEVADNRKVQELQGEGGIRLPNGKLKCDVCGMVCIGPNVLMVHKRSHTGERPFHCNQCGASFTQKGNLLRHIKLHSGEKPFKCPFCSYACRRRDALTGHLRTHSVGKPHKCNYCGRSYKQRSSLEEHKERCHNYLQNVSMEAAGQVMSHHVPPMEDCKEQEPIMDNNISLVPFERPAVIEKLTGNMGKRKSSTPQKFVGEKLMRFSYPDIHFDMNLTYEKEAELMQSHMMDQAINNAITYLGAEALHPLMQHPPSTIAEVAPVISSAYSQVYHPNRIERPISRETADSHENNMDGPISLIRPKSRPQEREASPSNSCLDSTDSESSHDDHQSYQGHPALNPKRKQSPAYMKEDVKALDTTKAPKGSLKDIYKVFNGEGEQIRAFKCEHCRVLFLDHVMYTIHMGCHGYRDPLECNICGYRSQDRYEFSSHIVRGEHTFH
T3 sequence (Q96SW2 whole entry): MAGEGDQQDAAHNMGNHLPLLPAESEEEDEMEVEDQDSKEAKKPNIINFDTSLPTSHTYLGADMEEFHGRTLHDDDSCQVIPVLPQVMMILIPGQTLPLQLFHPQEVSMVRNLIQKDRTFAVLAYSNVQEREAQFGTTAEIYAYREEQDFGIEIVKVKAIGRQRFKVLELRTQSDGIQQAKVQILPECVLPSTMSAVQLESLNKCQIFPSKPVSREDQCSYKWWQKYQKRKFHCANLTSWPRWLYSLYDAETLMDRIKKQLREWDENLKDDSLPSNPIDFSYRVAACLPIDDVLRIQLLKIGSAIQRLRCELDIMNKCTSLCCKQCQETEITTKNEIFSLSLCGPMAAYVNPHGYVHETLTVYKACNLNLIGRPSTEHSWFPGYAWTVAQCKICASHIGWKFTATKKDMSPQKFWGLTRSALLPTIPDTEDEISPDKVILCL
T3 sequence (Q16531 whole entry partner): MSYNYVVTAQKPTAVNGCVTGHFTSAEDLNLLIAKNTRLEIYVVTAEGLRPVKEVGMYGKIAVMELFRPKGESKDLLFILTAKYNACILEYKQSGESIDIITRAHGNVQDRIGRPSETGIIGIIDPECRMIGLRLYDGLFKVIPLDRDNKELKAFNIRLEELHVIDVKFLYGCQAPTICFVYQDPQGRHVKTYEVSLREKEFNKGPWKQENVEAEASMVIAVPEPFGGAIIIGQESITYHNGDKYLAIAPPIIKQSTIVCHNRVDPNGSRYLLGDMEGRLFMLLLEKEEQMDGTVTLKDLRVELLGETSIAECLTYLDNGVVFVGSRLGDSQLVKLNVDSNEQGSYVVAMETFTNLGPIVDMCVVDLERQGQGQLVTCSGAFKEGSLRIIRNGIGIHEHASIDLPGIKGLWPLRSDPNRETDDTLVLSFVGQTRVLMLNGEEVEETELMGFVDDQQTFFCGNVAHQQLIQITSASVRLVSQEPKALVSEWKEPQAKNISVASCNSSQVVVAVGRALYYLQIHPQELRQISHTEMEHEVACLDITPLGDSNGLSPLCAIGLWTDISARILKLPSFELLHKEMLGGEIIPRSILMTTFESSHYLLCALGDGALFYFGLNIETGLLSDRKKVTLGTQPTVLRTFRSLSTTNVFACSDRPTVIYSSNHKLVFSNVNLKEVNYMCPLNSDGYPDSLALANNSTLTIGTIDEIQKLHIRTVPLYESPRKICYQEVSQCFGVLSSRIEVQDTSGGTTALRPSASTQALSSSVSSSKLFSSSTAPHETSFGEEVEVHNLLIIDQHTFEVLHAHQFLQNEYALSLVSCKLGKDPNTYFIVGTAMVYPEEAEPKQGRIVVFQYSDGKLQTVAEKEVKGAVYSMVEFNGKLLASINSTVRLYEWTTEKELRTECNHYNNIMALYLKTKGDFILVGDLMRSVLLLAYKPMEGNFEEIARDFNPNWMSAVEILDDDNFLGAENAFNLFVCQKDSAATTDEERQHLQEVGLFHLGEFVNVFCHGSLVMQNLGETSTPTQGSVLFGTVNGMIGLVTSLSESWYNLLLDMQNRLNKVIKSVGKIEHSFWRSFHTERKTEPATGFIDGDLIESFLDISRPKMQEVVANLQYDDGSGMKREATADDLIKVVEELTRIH
T4 sequence (Q9UKT9 whole entry): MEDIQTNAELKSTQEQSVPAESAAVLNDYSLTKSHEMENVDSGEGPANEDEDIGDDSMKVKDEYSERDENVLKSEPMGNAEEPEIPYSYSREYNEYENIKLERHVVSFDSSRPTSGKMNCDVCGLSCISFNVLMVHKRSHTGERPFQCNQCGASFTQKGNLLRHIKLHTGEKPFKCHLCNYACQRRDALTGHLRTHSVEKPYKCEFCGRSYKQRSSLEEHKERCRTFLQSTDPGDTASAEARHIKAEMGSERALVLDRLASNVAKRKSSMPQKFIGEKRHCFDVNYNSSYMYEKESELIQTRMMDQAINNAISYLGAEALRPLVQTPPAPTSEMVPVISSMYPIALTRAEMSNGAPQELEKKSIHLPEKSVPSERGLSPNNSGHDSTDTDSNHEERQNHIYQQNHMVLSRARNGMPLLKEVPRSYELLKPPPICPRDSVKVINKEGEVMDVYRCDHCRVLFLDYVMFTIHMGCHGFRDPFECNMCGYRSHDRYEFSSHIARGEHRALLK
T4 sequence (Q96SW2 whole entry): as the sequence (Q96SW2 whole entry) above
T4 sequence (Q16531 whole entry partner): as the sequence (Q16531 whole entry partner) above
T5 sequence (P48729 whole entry): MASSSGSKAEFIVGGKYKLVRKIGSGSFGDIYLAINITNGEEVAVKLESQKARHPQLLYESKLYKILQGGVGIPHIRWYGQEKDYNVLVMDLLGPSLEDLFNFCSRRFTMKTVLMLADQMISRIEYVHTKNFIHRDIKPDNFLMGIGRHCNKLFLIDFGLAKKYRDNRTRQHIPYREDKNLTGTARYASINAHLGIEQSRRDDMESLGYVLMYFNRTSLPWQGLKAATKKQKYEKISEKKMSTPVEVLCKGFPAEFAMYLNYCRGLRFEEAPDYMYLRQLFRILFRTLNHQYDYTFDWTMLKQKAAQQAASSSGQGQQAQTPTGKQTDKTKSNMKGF
T5 sequence (Q96SW2 whole entry): as the sequence (Q96SW2 whole entry) above
T5 sequence (Q16531 whole entry partner): as the sequence (Q16531 whole entry partner) above
T6 sequence (P15170 whole entry): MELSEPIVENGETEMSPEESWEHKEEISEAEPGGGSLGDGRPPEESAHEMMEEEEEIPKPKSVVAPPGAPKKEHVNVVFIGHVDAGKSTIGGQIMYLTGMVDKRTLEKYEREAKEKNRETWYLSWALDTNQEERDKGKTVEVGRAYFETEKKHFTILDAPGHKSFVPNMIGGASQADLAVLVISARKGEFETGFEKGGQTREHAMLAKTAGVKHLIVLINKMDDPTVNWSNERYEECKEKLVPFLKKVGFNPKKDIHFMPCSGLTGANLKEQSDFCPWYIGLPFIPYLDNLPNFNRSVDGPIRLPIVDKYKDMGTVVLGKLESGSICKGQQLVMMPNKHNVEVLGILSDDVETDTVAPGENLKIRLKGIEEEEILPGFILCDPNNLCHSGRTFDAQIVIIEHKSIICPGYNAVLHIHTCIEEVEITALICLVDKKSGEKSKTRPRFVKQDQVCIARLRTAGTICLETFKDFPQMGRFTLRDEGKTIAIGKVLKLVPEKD
T6 sequence (Q96SW2 whole entry): as the sequence (Q96SW2 whole entry) above
T6 sequence (Q16531 whole entry partner): as the sequence (Q16531 whole entry partner) above
T1 sequence (P30291 whole entry): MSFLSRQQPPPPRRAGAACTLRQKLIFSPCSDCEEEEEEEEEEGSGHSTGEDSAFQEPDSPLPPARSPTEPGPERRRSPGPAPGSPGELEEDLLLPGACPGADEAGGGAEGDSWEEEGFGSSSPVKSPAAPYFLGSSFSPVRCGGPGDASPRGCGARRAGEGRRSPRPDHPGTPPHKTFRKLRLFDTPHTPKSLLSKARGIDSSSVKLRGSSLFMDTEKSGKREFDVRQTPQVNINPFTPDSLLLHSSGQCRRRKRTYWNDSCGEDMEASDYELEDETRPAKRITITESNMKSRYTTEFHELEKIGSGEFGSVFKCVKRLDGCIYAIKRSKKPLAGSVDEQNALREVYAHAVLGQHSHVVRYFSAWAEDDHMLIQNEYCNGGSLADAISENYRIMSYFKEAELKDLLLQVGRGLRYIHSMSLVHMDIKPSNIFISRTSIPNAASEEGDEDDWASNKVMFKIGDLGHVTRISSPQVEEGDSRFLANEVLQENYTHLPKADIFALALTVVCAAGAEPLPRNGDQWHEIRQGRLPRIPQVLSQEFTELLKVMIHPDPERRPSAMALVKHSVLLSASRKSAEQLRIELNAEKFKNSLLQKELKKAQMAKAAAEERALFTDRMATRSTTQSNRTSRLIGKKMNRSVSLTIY
T1 sequence (Q96SW2 whole entry): as the sequence (Q96SW2 whole entry) above
T1 sequence (Q16531 whole entry partner): as the sequence (Q16531 whole entry partner) above
T7 sequence (Q96SW2 whole entry): as the sequence (Q96SW2 whole entry) above

SMILES	Degradation of substrate protein WEE1 (substrate protein remaining %) (WEE1)	Degradation of substrate protein IKZF1 (substrate protein remaining %) (IKZF1)	Degradation of substrate protein IKZF2 (substrate protein remaining %) (IKZF2)	Degradation of substrate protein IKZF3 (substrate protein remaining %) (IKZF3)	Degradation of substrate protein CK1α (substrate protein remaining %) (CK1α)	Degradation of substrate protein GSPT1 (substrate protein remaining %) (GSPT1)	IC50 [1] [nM]
O=C1CCN(N2Cc3cc(CBr)ccc3C2=O)C(=O)N1 [GT-05568, 1-(5-(bromomethyl)-1-oxoisoindolin-2-yl)dihydropyrimidine-2,4(1H, 3H)-dione]	A (0%≤substrate protein remaining %≤80%)	A (0%≤substrate protein remaining %≤80%)	B (80%<substrate protein remaining %≤100%)	A (0%≤substrate protein remaining %≤80%)	A (0%≤substrate protein remaining %≤80%)	A (0%≤substrate protein remaining %≤80%)	1000 to 1500
O=C1CCN(N2C(=O)c3ccc(N4C[C@@H]5C[C@H]4CN5)cc3C2=O)C(=O)N1 [GT-05582, 5-((1S, 4S)-2,5-diazabicyclo[2.2.1]heptan-2-yl)-2-(2,4-dioxotetrahydropyrimidin-1(2H)-yl)isoindoline-1,3-dione]	A (0%≤substrate protein remaining %≤80%)	B (80%<substrate protein remaining %≤100%)	A (0%≤substrate protein remaining %≤80%)	A (0%≤substrate protein remaining %≤80%)	A (0%≤substrate protein remaining %≤80%)	A (0%≤substrate protein remaining %≤80%)	
O=C1CCN(N2C(=O)c3ccc(CBr)cc3C2=O)C(=O)N1 [GT-06979, 5-(bromomethyl)-2-(2,4-dioxotetrahydropyrimidin-1(2H)-yl)isoindoline-1,3-dione]	A (0%≤substrate protein remaining %≤80%)	B (80%<substrate protein remaining %≤100%)	A (0%≤substrate protein remaining %≤80%)	B (80%<substrate protein remaining %≤100%)	B (80%<substrate protein remaining %≤100%)	B (80%<substrate protein remaining %≤100%)	
O=C1CCN(N2C(=O)c3ccc(Br)cc3C2=O)C(=O)N1 [GT-04511, 5-bromo-2-(2,4-dioxotetrahydropyrimidin-1(2H)-yl)isoindoline-1,3-dione]	B (80%<substrate protein remaining %≤100%)	B (80%<substrate protein remaining %≤100%)	B (80%<substrate protein remaining %≤100%)	B (80%<substrate protein remaining %≤100%)	B (80%<substrate protein remaining %≤100%)	A (0%≤substrate protein remaining %≤80%)	
NCc1ccc2c(c1)C(=O)N(N1CCC(=O)NC1=O)C2=O [GT-07968, 5-(aminomethyl)-2-(2,4-dioxotetrahydropyrimidin-1(2H)-yl)isoindoline-1,3-dione]	A (0%≤substrate protein remaining %≤80%)	A (0%≤substrate protein remaining %≤80%)	A (0%≤substrate protein remaining %≤80%)	A (0%≤substrate protein remaining %≤80%)	A (0%≤substrate protein remaining %≤80%)	B (80%<substrate protein remaining %≤100%)	
O=CC1CCN(c2cccc3c2C(=O)N(N2CCC(=O)NC2=O)C3=O)CC1 [GT-05590, 1-(2-(2,4-dioxotetrahydropyrimidin-1(2H)-yl)-1,3-dioxoisoindolin-4-yl)piperidine-4-carbaldehyde]	B (80%<substrate protein remaining %≤100%)	B (80%<substrate protein remaining %≤100%)	B (80%<substrate protein remaining %≤100%)	A (0%≤substrate protein remaining %≤80%)	B (80%<substrate protein remaining %≤100%)	B (80%<substrate protein remaining %≤100%)	
O=C1CCN(N2C(=O)c3cc(N4CCNCC4)cc(F)c3C2=O)C(=O)N1 [GT-05593, 2-(2,4-dioxotetrahydropyrimidin-1(2H)-yl)-4-fluoro-6-(piperazin-1-yl)isoindoline-1,3-dione]	B (80%<substrate protein remaining %≤100%)	B (80%<substrate protein remaining %≤100%)	A (0%≤substrate protein remaining %≤80%)	B (80%<substrate protein remaining %≤100%)	B (80%<substrate protein remaining %≤100%)	A (0%≤substrate protein remaining %≤80%)	
O=C1CCN(N2C(=O)c3cccc(N4CCNCC4)c3C2=O)C(=O)N1 [GT-05591, 2-(2,4-dioxotetrahydropyrimidin-1(2H)-yl)-4-(piperazin-1-yl)isoindoline-1,3-dione]	B (80%<substrate protein remaining %≤100%)	B (80%<substrate protein remaining %≤100%)	B (80%<substrate protein remaining %≤100%)	A (0%≤substrate protein remaining %≤80%)	B (80%<substrate protein remaining %≤100%)	B (80%<substrate protein remaining %≤100%)	
